Patent US6750028B1, “Anti-fibrotic agent assay” (Ethicon, Inc, priority 1996, dated 2004)

Columns and labels:
TGF-β1 activation [1] = test: Activation of rHLTGF-β1 by macrophages; type: cell-based, mouse; details: 200 pg/ml rHLTGF-β1
Experimental: (§1) Cultured macrophages were lifted from the dish with 3 ml of PBS. The PBS was balanced with 15 ml of RPMI-1640 containing 10% FBS. The cells were counted and then seeded in 100 mm plates at 1×10^6 cells/dish. When the cultured macrophages reached approximately 70% confluency (2-3 days) they were washed with PBS and RPMI-1640 medium containing 5% FBS and 10 ng/ml LPS was applied (FIG. 1). After 24 h of activation with LPS the cells were washed gently with PBS. At this point conditioned medium from confluent fetal dermal fibroblasts was collected and 5 ml was distributed into each dish containing macrophages. The cells were incubated for an additional 24 h, the media were collected, spun down at 600×g for 10 min and stored at 4° C. before TGF-β1 evaluation by ELISA. Each condition was done in duplicate. The cells, washed with PBS, were harvested for total RNA extraction.
(§2) Each measurement was performed in duplicates.
The substitution in the media with purified recombinant latent form of TGF-β1 was tested in an attempt to determine the requirement for fibroblast conditioned media in the macrophage assay. Only 3.3% of rHLTGF-β1 was activated by macrophages when the treatment with LPS was omitted (Table 5).

TGF-β1 activation [2] = test: Macrophage activation assay (IC-21 macrophages, LPS, fetal fibroblast conditioned media, ELISA); type: cell-based, mouse
Experimental: as §1
Fetal dermal fibroblasts were seeded in 100 mm dishes at 1×10^6 cell/dish. The cells were grown to confluency (2-3 days). The cultures were washed with PBS and fresh medium, either DMEM supplemented with 10% FBS or AIM-V medium (a serum free medium) for serum-free conditions, was applied for 24 h (FIG. 1). The medium was collected and combined in order to obtain a homogenous pool of latent TGF-β1. The collection of the medium was done just prior to application in the macrophage assay.
as §2

TGF-β1 activation [3] = test: TGF-β1 activation by prostate adenocarcinoma cells (ELISA); type: cell-based, human; details: for % ACTIVE TGF-β1 (STD): Adenocarcinoma cells, M6P 100 μM, cystamine 100 μM, antibody 1:1500 dil
Experimental: as §2
(§3) It has been shown that cancer cells, such as human breast cancer, some melanoma cell lines and prostate adenocarcinoma cell lines, constitutively release biologically active TGF-β1 into the culture medium (24, 25, 29). Since the homotypic cell culture system would be of advantage due to its simplicity, an attempt was made to implement cancer cells as a method for TGF-β1 activation.

TGF-β1 activation [4] = test: TGF-β1 activation by HMB-2 melanoma cells (ELISA); type: cell-based, human
Experimental: as §2, §3

M6P/IGF-II receptors = test: M6P/IGF-II receptor levels within wounds treated with M6P; type: in vivo; details: 3 days post-wounding
TGF-β1 activation [5] = test: Co-culture of BAEC and BASMC, TGF-β1 in conditioned media by ELISA; type: cell-based, bovine
Experimental: For co-culture experiments, BAECs and BASMCs were seeded separately in 35 mm dishes at a density of 40×10^4 cells in DMEM/10% CS (Calf Serum) or 3.2×10^5 BAECs and 0.8×10^5 BASMCs in the same 35-mm dishes. After cell attachment (approximately 2 h) the cells were rinsed with PBS and incubated in 1 ml of DMEM/0.1% BSA for 6 h to produce conditioned media. Conditioned Media were centrifuged and used in the ELISA assay.
as §2
Preliminary experiments were carried out with the aim to adopt the published co-culture system for screening anti-fibrotic agents.

TGF-β1 mRNA [6] = test: TGF-β1 mRNA in human neonatal fibroblasts by RT-PCR; type: cell-based
Experimental: (§4) Human neonatal fibroblasts were seeded in 100 mm dishes at 1×10^6 cells/dish. […] In addition, cells were treated with two concentrations of Mannose 1-Phosphate (M1P) (100 and 200 μM) for 24 and 48 h. […] Each treatment was run in duplicates and repetitive analyses were performed.
(§5) The procedure used to transcribe the total RNA was described in detail previously (28). Briefly, the reaction was carried out in a total volume of 25 μl containing 1× reverse transcriptase buffer (50 mM Tris-HCl, pH 8.3, 75 mM KCl, 3 mM MgCl2), 10 mM DTT (Dithiothreitol), 2.5 mM each of dNTPs (Deoxynucleotides), 100 μg/ml of acetylated BSA, 4 units of rRNasin (ribonuclease inhibitor), 200 units of SuperScript™ RNase H^−Reverse Transcriptase, 0.1 μg of oligo (dT)12-18 and 1 μg of total RNA. Incubation was carried out for 1 h at 42° C. and was terminated by the addition of an equal volume of cold water.
(§6) A portion of the first strand cDNA reaction was used in PCR, which was carried out in 25 μl containing 16 mM Tris-HCl, pH 8.3, 50 mM KCl, 1.5 mM MgCl2, 0.01% gelatin, 200 μM of each dNTPs, 1 μM each sense and antisense oligonucleotides and 2.5 units of AmpliTaq DNA polymerase. Amplification was carried out for 35 cycles. Each cycle consisted of: denaturation 1 min at 95° C.; annealing at 55° C. (optimal for the pair of oligonucleotides used) for 2 min; and elongation at 72° C., 3 min. For the final cycle elongation was 7 min. Reaction products were separated by 2% agarose gel electrophoresis and were visualized by ethidium bromide staining. Sizes were determined using Q X 174 DNA/Hae III markers. Restriction digests were performed in order to confirm PCR product specificity. Densitometry was used for quantitative analysis of the ethidium bromide stained gels.

[7] = system: TGF-β receptor type I mRNA; test: TGF-β receptor type I mRNA in human neonatal fibroblasts by RT-PCR; type: cell-based; details: M6P, time course of treatment (24 and 48 h)
Experimental: as §4, §5
A portion of the first strand cDNA reaction was used in PCR, which was carried out in 25 μl containing 16 mM Tris-HCl, pH 8.3, 50 mM KCl, 1.5 mM MgCl2, 0.01% gelatin, 200 μM of each dNTPs, 1 μM each sense and antisense oligonucleotides and 2.5 units of AmpliTaq DNA polymerase. Amplification was carried out for 35 cycles. […] Sizes were determined using Q X 174 DNA/Hae III markers. […] Densitometry was used for quantitative analysis of the ethidium bromide stained gels.

TGF-β1 activation [8] = test: BAEC treated with retinoic acid, TGF-β1 in conditioned media by ELISA; type: cell-based, bovine; details: for inhibitory effect on TGF-β1 activation, in words: 100 μM, BAEC treated with RA; for % Active / Active TGF-β1 / Total TGF-β1: BAEC + RA (10 μM) + test agent 100 μM
Experimental: The procedures for preparation of conditioned media were described previously (22). Briefly, for the retinoid experiment, BAEC cells were grown to confluency in 35 mm dishes. The cultures were rinsed with PBS (Phosphate Buffered Saline), and incubated in 1 ml of serum-free DMEM containing 0.1% of BSA and retinoic acid (10 μM) or vehicle (0.5% ethanol). The incubation was carried out for 24 h. The medium was aspirated, the cells were washed with PBS and then incubated in 1 ml of DMEM/0.1% BSA for an additional 12 h to produce conditioned medium. Conditioned media were centrifuged and used in the ELISA assay for TGF-β1 evaluation.
Each measurement was performed in duplicates. […]

M6P/IGF-II receptor mRNA = M6P/IGF-II receptor mRNA in human neonatal fibroblasts by RT-PCR; type: cell-based
Experimental: as §4, §5, §6

TGF-β1 mRNA [9] = test: mRNA for TGF-β1 in macrophages by Northern blot; type: cell-based, mouse; details: LPS alone or LPS with M6P or DCA, FIG. 2
Experimental: The cells were washed with PBS, followed by addition of the extraction buffer provided with the kit (RNeasy RNA extraction kit). The lysed cells were scraped from the dish and collected in microtubes. Samples were either frozen at −70° C. before analysis or directly assessed following manufacturer protocol. Absorbance at 260 nm and 280 nm was measured and the integrity of RNA was evaluated by denaturing formaldehyde agarose gels stained with ethidium bromide.
Northern blot analysis was carried out as described previously (27). Briefly, total RNA samples (5 μg) were diluted in formaldehyde-MOPS buffer and subjected to electrophoresis in a denaturing 1.2% Sea Kem GTG agarose gel along with the RNA size markers. RNA was transferred to a nitrocellulose membrane by capillary transfer. The blots were prehybridized for 3 h at 42° C. in a solution containing 10% dextran sulfate, 2×Denhardt's solution, 50% formamide, 5×SSPE (0.75 M Sodium chloride, 0.05 M sodium phosphate, 0.005 M ethylenediaminetetraacetic acid)/0.1% SDS, and 250 μg/ml of sheared salmon testis DNA. Hybridization solution was essentially the same except that ^32P dCTP-labeled DNA probe and 150 μg/ml of salmon testis DNA were included. The hybridization was carried out for 16 h at 42° C. […]

TGF-β1 activation [10] = test: TGF-β1 activation by Bowes melanoma cells (ELISA); type: cell-based, human
Experimental: as §2, §3

## rHLTGF-β1: Recombinant human latent TGF-β1
TGF-β1 activation [1]; LPS
  % Active: 12.2%
  Active TGF-β1: 48.8 (3.5) pg/ml
  Total TGF-β1: 399 (44.5) pg/ml
TGF-β1 activation [1]; No LPS
  % Active: 3.3%
  Active TGF-β1: 10.9 (7.2) pg/ml
  Total TGF-β1: 324 (7.2) pg/ml

## NCCSSCCN [Cystamine, cystamine]
TGF-β1 activation [2]; 50 μM M6P + 100 μM putrescine or cystamine
  active TGF-β1, % Control (STD): did not show additive effect
TGF-β1 activation [3]
  % ACTIVE TGF-β1 (STD): 91.1%

## O=C[C@@H](O)[C@@H](O)[C@H](O)[C@H](O)COP(=O)(O)O [M6P, D-mannose 6-phosphate]
TGF-β1 activation [4]; HMB-2, M6P 100 μM, DCA 100 μM, antibody 1:1500 dil
  % ACTIVE TGF-β1 (STD): 108.4%
TGF-β1 activation [4]; melanoma cells (HMB-2)
  effect on TGF-β1 activation, in words: no effect
M6P/IGF-II receptors
  levels of the M6P/IGF-II receptors within the wounds, in words: downregulated
TGF-β1 activation [5]; 100 μM
  inhibition of TGF-β1 activation, in words: did not significantly inhibit
TGF-β1 activation [5]; Co-culture + M6P 100 μM
  % Active: 7.5%
  Active TGF-β1: 58 pg/mL
  Total TGF-β1: 770 pg/mL
TGF-β1 mRNA [6]; M6P 1 μM, 24 h
  expression of TGF-β1 cDNA (RT-PCR): 80.9
TGF-β1 mRNA [6]; M6P 1 μM, 48 h
  expression of TGF-β1 cDNA (RT-PCR): 86.3
TGF-β1 mRNA [6]; M6P 10 μM, 24 h
  expression of TGF-β1 cDNA (RT-PCR): 116.2
TGF-β1 mRNA [6]; M6P 10 μM, 48 h
  expression of TGF-β1 cDNA (RT-PCR): 78.8
TGF-β1 mRNA [6]; M6P 50 μM, 24 h
  expression of TGF-β1 cDNA (RT-PCR): 119.3
TGF-β1 mRNA [6]; M6P 50 μM, 48 h
  expression of TGF-β1 cDNA (RT-PCR): 75
TGF-β1 mRNA [6]; M6P 100 μM, 24 h
  expression of TGF-β1 cDNA (RT-PCR): 95.6
TGF-β1 mRNA [6]; M6P 200 μM, 24 h
  expression of TGF-β1 cDNA (RT-PCR): 62.5
TGF-β1 mRNA [6]; M6P 200 μM, 48 h
  expression of TGF-β1 cDNA (RT-PCR): 28.8
TGF-β1 activation [3]
  % ACTIVE TGF-β1 (STD): 91.8%
TGF-β1 activation [3]; prostate cancer cells
  effect on TGF-β1 activation, in words: no effect
[7]
  level of TGF-β receptor type I mRNA, in words: unchanged
TGF-β1 activation [8]
  inhibitory effect on TGF-β1 activation, in words: no significant inhibitory effects
  % Active: 8.1%
  Active TGF-β1: 287 pg/mL
  Total TGF-β1: 3544 pg/mL
M6P/IGF-II receptor mRNA; 1-100 μM, 24 h
  expression of mRNA for M6P/IGF-II receptor, in words: not affected
M6P/IGF-II receptor mRNA; 50-200 μM, 48 h
  expression of mRNA for M6P/IGF-II receptor, in words: decrease
TGF-β1 mRNA [9]
  levels of mRNA for TGF-β1, in words: remained the same
TGF-β1 activation [10]; BOWES, M6P 100 μM, DCA 100 μM, antibody 1:1500 dil
  % ACTIVE TGF-β1 (STD): 113.5%
TGF-β1 activation [10]; melanoma cells (Bowes)
  effect on TGF-β1 activation, in words: no effect

## Cl.Cl.NCCCCN [Putrescine, putrescine-dihydrochloride]
TGF-β1 activation [2]; 100 μM
  active TGF-β1, % Control (STD): 80.6%

## O=P(O)(O)O[C@H]1O[C@H](CO)[C@@H](O)[C@H](O)[C@@H]1O [M1P, alpha-D(+)mannose 1-phosphate]
TGF-β1 mRNA [6]; 100 and 200 μM
  effect on TGF-β1 mRNA level, in words: no effects
TGF-β1 activation [8]
  inhibitory effect on TGF-β1 activation, in words: no significant inhibitory effects
  % Active: 7.6%
  Active TGF-β1: 280 pg/mL
  Total TGF-β1: 3686 pg/mL
M6P/IGF-II receptor mRNA; 100 and 200 μM
  effect on M6P/IGF-II receptor mRNA level, in words: no effects
